Assay results as given in patent US20210338650A1, “CXCL10 Inhibitors” (LAPKO INC, dba AFECTA PHARMACEUTICALS, priority 2020, published 2021).

How the values were obtained:
CXCL10 = CXCL10 levels in retina tissue of STZ diabetic rats, topical eye drops; format: in vivo; conditions: eye drops 1-5%, 20 μL three times per day, 30 days, retina homogenate ELISA, vs control eye
Excerpt: CXCL10 expression is associated with age related and diabetes induced retinopathy. A hallmark of these retinopathies is retinal vascular leakage (i.e. increased retinal vascular permeability) thought to induced by CXCL10. To test the in vivo effect of the compounds on treatment of retinopathies associated with increased CXCL10 levels, diabetes was induced in rats by treatment with Streptozotocin (STZ) according established methods (Akbarzadeh et al, J Clin Biochem. 2007 September; 22(2): 60-64) Testing began once the diabetes had been established in the animals. Compounds were formulated into a topically applied eye drop solution containing 1-5% of compounds 91 and 108 along with ethylene glycol, sodium lauryl sulfate, hyaluronic acid, and sterile water at pH 7.0. […] CXCL10 expression was measured in retina tissue homogenate and retinal vascular permeability was assayed using the measurement of leakage of Evans Blue dye from retinal vessels, a well-established method (Invest Ophthalmol Vis Sci 2001 March; 42: 789-794).

[1] = tested on: human subjects suffering from dermatitis; assay: Clinical treatment of dermatitis/eczema with topical cream, Investigator's Global Assessment (IGA); format: in vivo; conditions: 7% topical cream twice per day, 3-4 weeks, vs area treated with cream base alone
Excerpt: To test the effect of the compounds on treatment of human dermatologic disorders associated with increased CXCL10 production by keratinocytes, Compound 97 and Compound 98 were formulated with stearic acid, lanolin (anhydrous), mineral oil and triethanolamine into a topically applied cream at a concentration of 7%. The compounds in the cream base were applied topically twice per day to human subjects suffering from dermatitis in an area of the skin with active skin lesions for 3-4 weeks. The control was the topical cream base composition without the active compounds. Outcome was measured by an experienced clinical observer as assessed by visible reduction or disappearance of the lesions as assessed in the treated area vs the control area treated only with the cream base alone using Investigator's Global Assessment (IGA) scale.

SMILES | amount of CXCL10 produced by the retina (CXCL10) | dermatitis/eczema lesions, Investigator's Global Assessment (IGA) [1]
COc1ccc2[nH]c([S+]([O-])Cc3ncc(C)c(OC)c3C)nc2c1 (stereo not shown) [Compound 91] | significant reduction | 
Cc1c(OCC(F)(F)F)ccnc1C[S+]([O-])c1nc2ccccc2[nH]1 (stereo not shown) [Compound 97] |  | pronounced effect on reducing the dermatitis/eczema
COCCCOc1ccnc(C[S+]([O-])c2nc3ccccc3[nH]2)c1C (stereo not shown) [Compound 98] |  | pronounced effect on reducing the dermatitis/eczema
COc1ccnc(C[S+]([O-])c2nc3cc(OC(F)F)ccc3[nH]2)c1OC (stereo not shown) [Compound 108] | significant reduction | 
